{"source": "patent US11464840B2", "about": "“Universal non-classical MHC I vaccines: HLA-E-restricted antigenic peptides as universal vaccines to treat allergy, inflammation, autoimmune and infectious diseases, and cancers” (priority 2019, dated 2022)", "key": {"HLA-E [1]": {"system": "HLA-E", "test": "Upregulation of surface HLA-E by peptide nonamers in TAP-deficient T2 cells (FACS)", "assay_type": "cell-based, human", "conditions": "overnight incubation with peptide", "description": "FIG. 3. Upregulation of surface HLA-E by peptide nonamers. Screening 9-mers of IgE epitope that were able to induce surface HLA-E expression in tap deficient T2 cells. T2 cells were cultured overnight in present of Panel A: A2 leader peptide-SEQ ID NO: 51, […]) or IgE epitope, B5 (SEQ ID NO: 52, […]), B6 (SEQ ID NO: 53, […]), B8 (SEQ ID NO: 54, […]) and B9 (SEQ ID NO: 55, […]), SP4 (SEQ ID NO: 56, […]), SP7 (SEQ ID NO: 57, […]) and SP11 (SEQ ID NO: 58, […]), and Panel B: IgE epitope of Mixture1 (SEQ ID NO: 59, […], […], […], […] and […]), Mixture2 (SEQ ID NO: 60: […], […], […], […] and […]), and Mixture 3 (SEQ ID NO: 61, […], SGYTPGTIN, […], […] and TINITWLED) at the concentration of 100 μg/ml. Cells were then collected and stained with PE conjugated HLA E followed by FACS flow cytometry analysis.\nFIG. 12. Screening of IgE epitope 9-mer which can induce surface HLA-E expression in TAP-deficient T2 cells. Peptide E33 ([…], SEQ ID NO: 68) was predicted by Ige Predict program. T2 cells (2.5×10^5 cells/well) were cultured in the presence of E33 peptide or HLA-A2 leader peptide (10 μg/mL) in 96-well cell culture plate for overnight. Cell were collected and stained with PE anti-human HLA-E antibody followed by flow cytometric analysis (Panel A). […]"}, "HLA-E [2]": {"system": "HLA-E", "test": "Surface HLA-E expression in immature MoDC cells (FACS)", "assay_type": "cell-based, human", "conditions": "100 nM SR11237, 100 nM Bexarotene or Interferon-β 1,000 U, 4 days", "description": "FIG. 5. […] MoDCs were then collected and stained with fluorescence-conjugated antibody; APC-conjugated anti-CD83 (Biolegend) and PE-conjugated HLA-E (Biolegend) followed by fixation with 2% paraformaldehyde. Phenotype and HLA-E expression of MoDCs were performed by using a FACS, LRSII flow cytometry and the data were processed by using the Flowjo software."}, "HLA-G": {"system": "HLA-G", "test": "Surface HLA-G expression in PBMCs (FACS)", "assay_type": "cell-based, human", "conditions": "anti-CD3 coated plate, 4 days", "description": "(§1) FIG. 6. Modulation of surface HLA-G and HLA-E expression in PBMCs in present of interferon-β. Fresh buffy coat was obtained from San Diego blood blank. PBMCs (peripheral blood mononuclear cells) were isolated by density gradient centrifugation with Histopague-1077 (Sigma). 5×10^5 of PBMCs were seeded in anti-CD3 (10 μg/ml) coated 96 wells-plate and treated with interferon-I3 for 4 days. Cells were collected and stained with fluorescence-conjugated antibody; Alexa Fluor 488-conjugated anti-human CD8a (Biolegend), Pacific Blue-conjugated human CD4, APC-Cy7-conjugated human CD19 and PE conjugated-HLA-E or PE-Cy 7 conjugated HLA-G (Panel A) or HLA-E (Panel B), followed by fixation with 2% paraformaldehyde. Phenotype and HLA-E or HLA-G (Biolegend) expression were performed by using a FACS, LRSII flow cytometry and the data were processed as describe above."}, "HLA-E [3]": {"system": "HLA-E", "test": "Surface HLA-E expression in PBMCs (FACS)", "assay_type": "cell-based, human", "conditions": "anti-CD3 coated plate, 4 days", "description": "as §1"}, "Derlin-1 mRNA [4]": {"system": "Derlin-1 mRNA", "test": "Derlin-1 mRNA knockdown by siRNA in monocyte-derived dendritic cells (qPCR, ΔΔCt)", "assay_type": "cell-based, human", "conditions": "MODC", "description": "(§2) Table 1: Summary of Derlin-1 Knockdowns with Various siRNAs. Cells transfected in 12 well plate at 60%-80% confluency. one ul Viromer blue was used per 1 ml final volume. Cells were lysed via centrifugation and resuspended in TRI reagent at time points of either 6 h, 24 h, and 48 h. Lysates were split for both protein verification and qPCR. Knockdowns are estimated using the ΔΔCt method. […] Anti-Derlin-1 siRNA was designed using MITs website (sirna.wi.mit.edu) and siRNA design software (dharmacon.horizondiscovery.com/rnai/sirna). SiRNA were chosen based on the criteria that they would bind no more than 15 nucleotides on off-target mRNA and that they would be capable of knockdown for all four of the Derlin-1 mRNA isoforms. Additionally, siRNAs with 40-60% GC content, no more than 3 identical nucleotides in a row, and 3′ UU overhangs were used. The first siRNA (SEQ ID NO: 65, 5′-[…]-3′) was purchased from TriLink Biotechnologies and the second (SEQ ID NO: 66, 5′-[…]-3′) was purchased from Horizon Discovery. A third, modified siRNA with sequence 5′-SEQ ID NO: 67, O′me/G/O′me/[…]-3′ and DNA bases on the 1st and 8th nucleotide of the antisense strand was also designed and purchased from Horizontal Discovery. Scramble siRNAs were purchased from Horizontal Discovery (D-001810-10-05, ON-TARGET plus Non-targeting Pool).\nDerlin-1 forms an integral part of the […] machinery required for transporting classical MHCI, e.g., HLA-A, -B, -C for proteasome degradation. […] In contrast, the protein band of Derlin-1 is entirely missing in Derlin-1 siRNA-treated MoDCs. Transfection of the primary cells were performed using PEI reagents (Viromer Blue vs. Viromer Red). The embodiment of the invention is three-fold. One aspect of the embodiment resides in treating APC with Derlin-1 RNA interference to prevent the generation of endogenous leader peptide as well as to cause dissociation of the HLA-E bound endogenous leader peptides so that Derlin-1-treated APC can be fully loaded with the HLA-E vaccines in the presence of the second costimulatory signal for immune induction."}, "Derlin-1 mRNA [5]": {"system": "Derlin-1 mRNA", "test": "Derlin-1 mRNA knockdown by siRNA in T2 cells (qPCR, ΔΔCt)", "assay_type": "cell-based, human", "description": "as §2, with “Pool). […]” for “Pool).”"}, "HLA-E [6]": {"system": "HLA-E", "test": "ELISA of renatured HLA-E binding to biotinylated leader peptide (C3N)", "parameters": "species or system human", "description": "FIG. 2. […] ELISA for the interaction of denatured HLA-E or covalent HLA-E-β2 microglobulin fusion protein with biotinylated HLA-A2 leader peptide. 10 μg of denatured recombinant HLAE-β2 microglobulin fusion protein, or denatured HLA-E incubated with biotinylated A2 leader peptide (SEQ ID NO: 50, […]) with or without 10 μg β2 microglobulin in 50 μl buffer A (0.5 mM-Tris pH at 6.6) at 18° C. for two days. The complexes were then added into anti-HLA E antibody coated plate (2 μg/ml) and incubated for 1 hour. After washing three times with 1% BSA PBS, HRP-Avidin (Biolegend #405103, 1:1000) was used to detect bound biotinylated leader peptide.\nA conformation capture of canonical/non-canonical peptide (C3N) method to HLA-E is designed to test predicted HLA-E binding peptides. HLA-E canonical and nominal peptides predicted from the python algorithm of Igepredict program and any 9 to 12-mer made collinearly with an overlapping IgE sequence can be tested by a binding assay. […] The assay for intact re-natured conformation of HLA-E is dependent on gaining the binding signal using anti-HLA-E coated plate to capture re-natured HLA-E in the presence of beta 2 microglobulin and leader peptides."}}, "note": "“And” between values parts separate entries of the source, which are not always exact repeats. Equal entries are not always repeated. Ends that are not written are not given here."}
{"substance": "TMTLPATTL (listed as Homo sapiens) [E33]", "values": [{"measurement": "surface expression of HLA-E in T2 cells", "setting": "HLA-E [1]", "result": "stronger upregulation"}]}
{"substance": "VMAPRTLLL (VMAPRTLVL; listed as Homo sapiens) [A 2 leader peptide, reference compound]", "values": [{"measurement": "surface expression of HLA-E in T2 cells", "setting": "HLA-E [1]", "result": "enhanced surface expression"}]}
{"substance": "Interferon β", "values": [{"measurement": "HLA-E expression of immature MoDC cells", "setting": "HLA-E [2]", "result": "increasing intense expression"}, {"measurement": "expression of HLA-G in CD4+ T cells", "setting": "HLA-G", "result": "about two-fold"}, {"measurement": "expression of HLA-G in CD8+ T cells", "setting": "HLA-G", "result": "about two-fold"}, {"measurement": "expression of HLA-G in CD19+ cells", "setting": "HLA-G", "result": "increased"}, {"measurement": "HLA-E expression in CD4+ T cells", "setting": "HLA-E [3]", "result": "decrease"}, {"measurement": "HLA-E expression in CD8+ T cells", "setting": "HLA-E [3]", "result": "decrease"}, {"measurement": "HLA-E expression in CD19+ cells", "setting": "HLA-E [3]", "result": "increased"}]}
{"substance": "O′me/G/O′me/ACUUGGGAGGAAGAAAUUU-3′ (siRNA; 2'-O-methyl at sense 5' end, DNA at antisense positions 1 and 8, further chemistry not given here; listed as Homo sapiens) [Derlin siRNA #3]", "values": [{"measurement": "Derlin-1 mRNA knockdown (KD)", "setting": "Derlin-1 mRNA [4]; 5 nM siRNA, Day 1", "result": 62, "unit": "%"}, {"measurement": "Derlin-1 mRNA knockdown (KD)", "setting": "Derlin-1 mRNA [4]; 5 nM siRNA, Day 2", "result": 37, "unit": "%"}, {"measurement": "Derlin-1 mRNA knockdown (KD)", "setting": "Derlin-1 mRNA [4]; 10 nM siRNA, Day 1", "result": 41, "unit": "%"}, {"measurement": "Derlin-1 mRNA knockdown (KD)", "setting": "Derlin-1 mRNA [4]; 10 nM siRNA, Day 2", "result": 33, "unit": "%"}, {"measurement": "Derlin-1 mRNA knockdown (KD)", "setting": "Derlin-1 mRNA [5]; T2, 1 nM siRNA, 6 Hours", "result": 59, "unit": "%"}, {"measurement": "Derlin-1 mRNA knockdown (KD)", "setting": "Derlin-1 mRNA [5]; T2, 2 nM siRNA, 6 Hours", "result": 33, "unit": "%"}, {"measurement": "Derlin-1 mRNA knockdown (KD)", "setting": "Derlin-1 mRNA [5]; T2, 4 nM siRNA, 6 Hours", "result": 28, "unit": "%"}, {"measurement": "Derlin-1 mRNA knockdown (KD)", "setting": "Derlin-1 mRNA [5]; T2, 8 nM siRNA, 6 Hours", "result": 17, "unit": "%"}]}
{"substance": "NPRKVTAYL (also: biotin, place not given here; listed as Homo sapiens) [HLA-E leader peptide]", "values": [{"measurement": "increment of HLA-E binding signal", "setting": "HLA-E [6]; leader peptide 1.0 μg/ml versus 0.1 μg/ml", "result": "~10 fold and ~15 fold"}, {"measurement": "HLA-E binding signal (ELISA)", "setting": "HLA-E [6]; leader peptide addition at 0.1 μg/ml", "result": "around 0.02 OD"}]}
{"substance": "5′-GAGGCCAGCAGACUAUUUAUU-3′ [Derlin siRNA #1]", "values": [{"measurement": "Derlin-1 mRNA knockdown (KD)", "setting": "Derlin-1 mRNA [4]; 25 nM siRNA, Day 1", "result": 36, "unit": "%"}, {"measurement": "Derlin-1 mRNA knockdown (KD)", "setting": "Derlin-1 mRNA [4]; 50 nM siRNA, Day 1", "result": 30, "unit": "%"}, {"measurement": "Derlin-1 mRNA knockdown (KD)", "setting": "Derlin-1 mRNA [5]; T2, 5 nM siRNA, Day 1", "result": 32, "unit": "%"}, {"measurement": "Derlin-1 mRNA knockdown (KD)", "setting": "Derlin-1 mRNA [5]; T2, 5 nM siRNA, Day 2", "result": 19, "unit": "%"}, {"measurement": "Derlin-1 mRNA knockdown (KD)", "setting": "Derlin-1 mRNA [5]; T2, 10 nM siRNA, Day 1", "result": 50, "unit": "%"}, {"measurement": "Derlin-1 mRNA knockdown (KD)", "setting": "Derlin-1 mRNA [5]; T2, 10 nM siRNA, Day 2", "result": 10, "unit": "%"}, {"measurement": "Derlin-1 mRNA knockdown (KD)", "setting": "Derlin-1 mRNA [5]; T2, 20 nM siRNA, Day 1", "result": 25, "unit": "%"}, {"measurement": "Derlin-1 mRNA knockdown (KD)", "setting": "Derlin-1 mRNA [5]; T2, 20 nM siRNA, Day 2", "result": 29, "unit": "%"}]}
